Key:
Cavia porcellus [1] = assay: Inhibition of LTD4-induced broncho constriction in Guinea pig after intragastrical administration of a dose of 25 mg/kg; assay type: functional; settings: po, route intragastric
Cavia porcellus [2] = assay: Inhibition of LTD4-induced broncho constriction in Guinea pig after intragastrical administration of a dose of 3 mg/kg; assay type: functional; settings: po, route intragastric
Cavia porcellus [3] = assay: Tested for the inhibition of LTD4-induced broncho constriction in Guinea pig, injected intraduodenally at a dose of 25 mg/kg; assay type: functional; settings: route intraduodenal
Cavia porcellus [4] = assay: Inhibition of LTD4-induced broncho constriction in Guinea pig after intragastrical administration of a dose of 0.3 mg/kg; assay type: functional; settings: po, route intragastric
Cavia porcellus [5] = assay: Inhibition of LTD4-induced broncho constriction in Guinea pig after intragastrical administration of a dose of 1 mg/kg; assay type: functional; settings: po, route intragastric
Cavia porcellus [6] = assay: Inhibition of LTD4-induced broncho constriction in Guinea pig after intraduodenal administration of a dose of 25 mg/kg; assay type: functional
Cavia porcellus [7] = assay: Tested for the inhibition of LTD4-induced broncho constriction in Guinea pig, injected intraduodenally at a dose of 5 mg/kg; assay type: functional; settings: route intraduodenal
Rattus norvegicus = assay: Antiinflammatory effect was studied in a rat carrageenan paw edema (CE) assay at 50 mg/kg; assay type: functional
Cavia porcellus [8] = assay: In vitro inhibition of LTD4-induced bronchoconstriction after intragastrical administration 120 min before agonist into isolated guinea pig trachea; assay type: functional; settings: po
Cavia porcellus [9] = assay: In vitro inhibition of ovalbumin-induced bronchoconstriction after intragastrical administration 120 min before agonist into isolated guinea pig trachea; assay type: functional; settings: po
Cavia porcellus [10] = assay: Examined in vitro for LTD4-induced bronchoconstriction in isolated guinea pig trachea by injecting intraduodenally; assay type: functional; settings: intraduodenal
Cyclooxygenase = biological target: T1, Cyclooxygenase (Rattus norvegicus, UniProt P35355+Q63921); assay: Concentration for 50% inhibition of A-23187-stimulated radiolabeled 5-HETE and TXB2 synthesis by Prostaglandin G/H synthase; assay type: protein assay
T1 sequence (P35355 whole entry): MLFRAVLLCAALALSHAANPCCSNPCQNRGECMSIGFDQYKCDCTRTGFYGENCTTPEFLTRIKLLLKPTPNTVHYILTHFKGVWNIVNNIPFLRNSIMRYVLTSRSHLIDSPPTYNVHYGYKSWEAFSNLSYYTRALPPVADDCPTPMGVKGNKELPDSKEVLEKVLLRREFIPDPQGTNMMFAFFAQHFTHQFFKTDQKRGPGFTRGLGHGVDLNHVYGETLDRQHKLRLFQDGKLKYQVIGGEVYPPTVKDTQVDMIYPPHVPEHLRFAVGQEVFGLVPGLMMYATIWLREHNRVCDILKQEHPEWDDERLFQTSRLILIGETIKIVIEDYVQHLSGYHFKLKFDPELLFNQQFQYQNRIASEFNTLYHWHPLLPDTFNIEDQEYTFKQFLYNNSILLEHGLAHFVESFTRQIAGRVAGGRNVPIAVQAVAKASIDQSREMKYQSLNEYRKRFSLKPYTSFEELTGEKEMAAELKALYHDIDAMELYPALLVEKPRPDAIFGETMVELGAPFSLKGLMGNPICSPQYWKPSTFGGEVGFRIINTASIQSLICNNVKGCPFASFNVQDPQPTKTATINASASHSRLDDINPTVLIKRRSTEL
T1 sequence (Q63921 whole entry): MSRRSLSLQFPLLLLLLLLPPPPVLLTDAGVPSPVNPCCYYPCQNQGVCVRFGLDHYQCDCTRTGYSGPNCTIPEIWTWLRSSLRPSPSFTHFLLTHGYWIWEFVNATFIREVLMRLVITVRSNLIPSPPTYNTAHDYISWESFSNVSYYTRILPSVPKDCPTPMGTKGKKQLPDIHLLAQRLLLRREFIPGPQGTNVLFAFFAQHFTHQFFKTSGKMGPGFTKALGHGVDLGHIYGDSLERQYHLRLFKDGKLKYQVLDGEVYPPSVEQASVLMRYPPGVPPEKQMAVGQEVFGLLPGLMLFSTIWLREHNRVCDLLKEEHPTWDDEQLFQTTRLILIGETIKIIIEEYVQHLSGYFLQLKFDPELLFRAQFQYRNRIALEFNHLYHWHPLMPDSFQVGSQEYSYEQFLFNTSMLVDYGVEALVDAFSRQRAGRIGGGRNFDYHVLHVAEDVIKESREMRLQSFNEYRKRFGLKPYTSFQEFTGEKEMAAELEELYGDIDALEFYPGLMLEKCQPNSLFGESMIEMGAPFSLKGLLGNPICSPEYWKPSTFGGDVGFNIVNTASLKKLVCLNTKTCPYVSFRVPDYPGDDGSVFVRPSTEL

Cavia porcellus [11] = assay: In vitro for inhibition of ovalbumin-induced bronchoconstriction in isolated guinea pig trachea by injecting intraduodenally; assay type: functional; settings: intraduodenal
[12] = biological target: T2, Polyunsaturated fatty acid 5-lipoxygenase (Rattus norvegicus, UniProt P12527); assay: Concentration for 50% inhibition of A-23187-stimulated radiolabeled 5-HETE and TXB2 synthesis by PMN 5-lipoxygenase; assay type: functional
T2 sequence (P12527 whole entry): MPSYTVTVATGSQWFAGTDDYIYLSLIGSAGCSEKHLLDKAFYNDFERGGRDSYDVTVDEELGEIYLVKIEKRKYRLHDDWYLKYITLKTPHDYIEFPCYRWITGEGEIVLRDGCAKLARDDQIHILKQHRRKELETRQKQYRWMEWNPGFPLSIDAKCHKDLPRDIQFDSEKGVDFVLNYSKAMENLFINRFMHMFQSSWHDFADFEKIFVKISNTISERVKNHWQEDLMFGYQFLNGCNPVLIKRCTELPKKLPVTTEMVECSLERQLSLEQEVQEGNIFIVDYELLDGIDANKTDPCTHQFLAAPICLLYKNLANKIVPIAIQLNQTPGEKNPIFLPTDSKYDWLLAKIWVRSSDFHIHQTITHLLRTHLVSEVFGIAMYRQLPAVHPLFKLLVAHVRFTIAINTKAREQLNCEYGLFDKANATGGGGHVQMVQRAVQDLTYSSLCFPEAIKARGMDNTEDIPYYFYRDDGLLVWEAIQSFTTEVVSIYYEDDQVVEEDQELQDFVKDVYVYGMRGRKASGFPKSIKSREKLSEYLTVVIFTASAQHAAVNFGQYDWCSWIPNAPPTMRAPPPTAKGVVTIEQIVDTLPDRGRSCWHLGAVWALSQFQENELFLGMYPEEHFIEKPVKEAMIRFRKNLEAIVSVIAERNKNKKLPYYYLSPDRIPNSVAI

Cavia porcellus [13] = assay: Dissociation constant was determined In vitro in isolated guinea pig trachea after intraduodenal administration; assay type: ADME, organism-based; settings: in vivo, other

CONC(=O)CCc1cccc(OCc2ccc3ccccc3n2)c1
inhibition in vivo at 25 mg/kg (Cavia porcellus [1]): 86% | inhibition in vivo at 3 mg/kg (Cavia porcellus [2]): 5%

O=C(NO)c1cccc(OCc2ccc3ccccc3n2)c1
inhibition in vivo at 25 mg/kg (Cavia porcellus [3]): < 33%

c1cc(Cc2nnn[nH]2)cc(OCc2ncc3ccccc3n2)c1
inhibition in vivo at 25 mg/kg (Cavia porcellus [3]): < 77%

c1ccc(-c2nn[nH]n2)c(OCc2ccc3ccccc3n2)c1
inhibition in vivo at 25 mg/kg (Cavia porcellus [3]): < 31%

Cc1ccc(S(=O)(=O)NC(=O)Cc2cccc(OCc3ccc4ccccc4n3)c2)cc1
inhibition in vivo at 25 mg/kg (Cavia porcellus [1]): < 16% | inhibition in vivo at 25 mg/kg (Cavia porcellus [3]): < 75%

O=C(NS(=O)(=O)c1ccccc1)c1cccc(OCc2ccc3ccccc3n2)c1
inhibition in vivo at 0.3 mg/kg (Cavia porcellus [4]): < 12% | inhibition in vivo at 1 mg/kg (Cavia porcellus [5]): < 82%

CONC(=O)Cc1cccc(OCc2nc3ccccc3n2C)c1
inhibition in vivo at 25 mg/kg (Cavia porcellus [1]): < 58%

O=C(O)CCc1cccc(OCc2ccc3ccccc3n2)c1
inhibition in vivo at 25 mg/kg (Cavia porcellus [1]): < 75%

CON(C)C(=O)Cc1cccc(OCc2ccc3ccccc3n2)c1
inhibition in vivo at 25 mg/kg (Cavia porcellus [1]): 93%

O=C(NOCc1ccccc1)c1cccc(OCc2ccc3ccccc3n2)c1
inhibition in vivo at 25 mg/kg (Cavia porcellus [1]): < -14% | inhibition in vivo at 25 mg/kg (Cavia porcellus [6]): < 71%

c1ccc2nc(COc3ccc(-c4nn[nH]n4)cc3)ccc2c1
inhibition in vivo at 5 mg/kg (Cavia porcellus [7]): < 28%

CC(C)Cc1ccc(C(C)C(=O)O)cc1 (stereo not drawn) [IBUPROFEN]
inhibition in vivo at 50 mg/kg (Rattus norvegicus): 63%

O=S(=O)(Nc1cccc(OCc2ccc3ccccc3n2)c1)C(F)(F)F [RITOLUKAST]
ED50 (Cavia porcellus [8]): 0.1 mg/kg | ED50 (Cavia porcellus [9]): 0.6 mg/kg | ED50 (Cavia porcellus [10]): 0.3 mg/kg | IC50 (Cyclooxygenase): 9100 nM | ED50 (Cavia porcellus [11]): 3 mg/kg | IC50 [12]: 2000 nM | pKb (Cavia porcellus [13]): 7.7
